From patent US20220259167A1 (UNIVERSITY HEALTH NETWORK, priority 2019, published 2022)
Values joined by “and” are separate entries in the source; they are usually repeats but may differ in a detail not shown here. Equal entries are not always repeated. Where two headings read alike, the source gives them in different places.

Tests used:
SIM-A9 cells = experiment: Anti-inflammation assay: TNF-α production from LPS stimulated SIM-A9 cells (ELISA); assay type: cell-based; settings: compound 2.7 μM; LPS stimulated SIM-A9 cells; read-out: TNF-α Inhibition
[1] = target: biotinylated amyloid-beta(1-42) (bioAbeta42) (Homo sapiens, UniProt P05067); assay type: biochemical
Sequence of biotinylated amyloid-beta(1-42) (bioAbeta42) (P05067 672-713): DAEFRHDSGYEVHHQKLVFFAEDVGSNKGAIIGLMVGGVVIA

Aβ 1-40 = Aβ 1-40 (Homo sapiens, UniProt P05067); experiment: Aβ ThT aggregation (fibrillization) assay; assay type: biochemical; settings: compound at 100 μM
Sequence of Aβ 1-40 (P05067 672-711): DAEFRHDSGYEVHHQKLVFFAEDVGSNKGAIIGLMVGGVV

[2] = Example 5, ND = inhibition activity not detected over 200 μM, read-out: Inhibition of Aβ oligomerization, μM IC50
[3] = Example 5, versus DMSO control, read-out: Inhibition of Aβ fibrillization at concentration 100 μM, Inhibition %
[4] = Example 2, read-out: Anti-Aβ oligomerization IC50
[5] = Example 3, read-out: % inhibition of Aβ fibrillization (at 100 μ M)

Row | IC50 [1, 2] [µM] | Structure (SMILES) | inhibition at 2.7 µM (SIM-A9 cells) [%] | also measured
1 | > 200 | O=C(O)c1ccc(Cl)cc1NCc1ccco1 [WW001, 4-Chloro-2-((furan-2-ylmethyl)amino) Benzoic Acid] |  | inhibition at 100 µM (Aβ 1-40; [3]): 20.2%
2 | > 200 | O=C(O)c1cc(S(=O)(=O)NC2CC2)c(Cl)cc1NCc1ccco1 [WW030, 4-Chloro-5-(N-cyclopropylsulfamoyl)-2-((furan-2-ylmethyl)amino)benzoic Acid] |  | 
3 | 53 ± 3.37 | CNS(=O)(=O)c1cc(C(=O)O)c(NCc2ccco2)cc1Cl [WW032, 4-chloro-2-((furan-2-ylmethyl)amino)-5-(N-methylsulfamoyl) Benzoic Acid] |  | IC50 [1, 4]: 55.1 µM; Inhibition of Aβ fibrillization at concentration 100 μM, Inhibition % (Aβ 1-40; Example 5, versus DMSO control): Pro- fibrilliza- tion
4 | > 200 | O=C(O)c1cc(S(=O)(=O)NCc2ccccc2)c(Cl)cc1NCc1ccco1 [WW035, 5-(N-benzylsulfamoyl)-4-chloro-2-((furan-2-ylmethyl)amino)benzoic Acid] |  | 
5 | 68.5 ± 18.7 | O=C(O)c1cc(S(=O)(=O)NCc2ccc(C(O)C(F)(F)F)cc2)c(Cl)cc1NCc1ccco1 (centres unmarked) [WW036, 4-Chloro-2-((furan-2-ylmethyl)amino)-5-(N-(4-(2,2,2-trifluoro-1-hydroxyethyl)benzyl)sulfamoyl)benzoic Acid] |  | Inhibition of Aβ fibrillization at concentration 100 μM, Inhibition % (Aβ 1-40; Example 5, versus DMSO control): Pro- fibrilliza- tion
6 | 41.2 ± 12.8 | O=C(O)c1cc(S(=O)(=O)N2CCOCC2)c(Cl)cc1NCc1ccco1 [WW049, 4-Chloro-2((furan-2-ylmethyl)amino)-5-(morpholinosulfony)benzoic Acid] |  | IC50 [1, 4]: 38.5 µM; Inhibition of Aβ fibrillization at concentration 100 μM, Inhibition % (Aβ 1-40; Example 5, versus DMSO control): Pro- fibrilliza- tion
7 | 21.9 ± 7.36 | CN(Cc1ccccc1)S(=O)(=O)c1cc(C(=O)O)c(NCc2ccco2)cc1Cl [WW052, 5-(N-Benzyl-N-methylsulfamoyl)-4-chloro-2-((furan-2-ylmethyl)amino) benzoic Acid] | 24.1 | IC50 [1, 4]: 21.7 µM
8 | 41.1 ± 20.4 | CC(NS(=O)(=O)c1cc(C(=O)O)c(NCc2ccco2)cc1Cl)c1ccccc1 (centres unmarked) [WW053, 4-Chloro-2-((furan-2-ylmethyl)amino)-5-(N-(1-phenylethyl)sulfamoyl) benzoic Acid] |  | IC50 [1, 4]: 38.5 µM
9 | > 200 | O=C(O)c1cc(S(=O)(=O)NCCc2ccccc2)c(Cl)cc1NCc1ccco1 [WW056, 4-Chloro-2-((furan-2-ylmethyl)amino)-5-(N-phenethylsulfamoyl) Benzoic Acid] | 13 | 
10 | 137 ± 11.9 | CCNS(=O)(=O)c1cc(C(=O)O)c(NCc2ccco2)cc1Cl [WW057, 4-Chloro-5-(N-ethylsulfamoyl)-2-((furan-2-ylmethyl)amino) Benzoic Acid] |  | 
11 | 113 ± 22.8 | CN(C)S(=O)(=O)c1cc(C(=O)O)c(NCc2ccco2)cc1Cl [WW062, 4-Chloro-5-(N, N-dimethylsulfamoyl)-2-((furan-2-ylmethyl)amino) Benzoic Acid] |  | Inhibition of Aβ fibrillization at concentration 100 μM, Inhibition % (Aβ 1-40; Example 5, versus DMSO control): Pro- fibrilliza- tion
12 | > 200 | COc1ccc(CNS(=O)(=O)c2cc(C(=O)O)c(NCc3ccco3)cc2Cl)cc1 [WW063, 4-Chloro-2-((furan-2-ylmethyl)amino)-5-(N-(4-methoxybenzyl)sulfamoyl) Benzoic Acid] |  | 
13 | 47.8 ± 14.3 | CCCCCCNS(=O)(=O)c1cc(C(=O)O)c(NCc2ccco2)cc1Cl [WW064, 4-Chloro-2-((furan-2-ylmethyl)amino)-5-(N-hexylsulfamoyl) Benzoic Acid] |  | IC50 [1, 4]: 46.1 µM; inhibition at 100 µM (Aβ 1-40; [5]): 39.2%; inhibition at 100 µM (Aβ 1-40; [3]): 39.2%
14 | > 200 | Cc1ccc(CNS(=O)(=O)c2cc(C(=O)O)c(NCc3ccco3)cc2Cl)cc1 [WW065, 4-Chloro-2-((furan-2-ylmethyl)amino)-5-(N-(4-methylbenzyl)sulfamoyl) Benzoic Acid] | 20 | 
15 | 130 ± 25.8 | O=C(O)c1ccc(F)cc1NCc1ccco1 [WW071, 4-Fluoro-2-((furan-2-ylmethyl)amino)benzoic Acid] |  | 
16 | 154 ± 33.8 | O=C(O)c1ccc(Br)cc1NCc1ccco1 [WW073, 4-Bromo-2-((furan-2-ylmethyl)amino) Benzoic Acid] | 27 | 
17 | 116 ± 13.8 | O=C(O)c1cc(S(=O)(=O)NC2CCCCC2)c(Cl)cc1NCc1ccco1 [WW082, 4-Chloro-5-(N-cyclohexylsulfamoyl)-2-((furan-2-ylmethyl)amino) Benzoic Acid] | 11 | 
18 | 117 ± 3.95 | CNS(=O)(=O)c1cc(CO)c(NCc2ccco2)cc1Cl [WW109, 2-Chloro-4-((furan-2-ylmethyl)amino)-5-(hydroxymethyl)-N-methylbenzenesulfonamide] | 21 | 
19 | 70.5 ± 15.7 | CNS(=O)(=O)c1cc(-c2nnn[nH]2)c(NCc2ccco2)cc1Cl [WW121] | 2 | 
20 | > 200 | CNS(=O)(=O)c1cc(-c2noc(=O)[nH]2)c(NCc2ccco2)cc1Cl [WW187, 2-Chloro-4-((furan-2-ylmethyl)amino)-N-methyl-5-(5-oxo-2,5-dihydro-1,2,4-oxadiazol-3-yl)benzenesulfonamide] | 20 | 

The next lines start with the compound.

Row | Structure (SMILES) | IC50 [1, 2] [µM] | inhibition at 2.7 µM (SIM-A9 cells) [%] | also measured
21 | COc1ccc(C(=O)O)c(NCc2ccco2)c1 [Compound 5-LV-54A] |  | 16 | 
22 | COc1ccc(C(=O)O)c(NCc2ccccc2)c1 [Compound 5-LV-54B, 2-(Benzylamino)-4-methoxybenzoic Acid] |  | 30 | 
23 | COc1ccc(C(=O)O)c(NCc2ccoc2)c1 [Compound 5-LV-56A] |  | 32 | 
24 | O=C(O)c1ccc(Cl)cc1NCc1ccccc1 [LD3-305, 2-(Benzylamino)-4-chlorobenzoic Acid] |  | 30 | 
25 | O=C(O)c1ccc(Cl)cc1NCCc1ccccc1 [LD3-306, 4-Chloro-2-(phenethylamino)benzoic Acid] |  | 21 | 
26 | O=C(O)c1ccc(Cl)cc1NCc1cccs1 [LD3-309, 4-Chloro-2-((thiophen-2-ylmethyl)amino)benzoic Acid] |  | 18 | 
27 | O=C(O)c1ccc(Cl)cc1NCc1ccoc1 [LD3-310, 4-Chloro-2-((furan-3-ylmethyl)amino)benzoic Acid] |  | 24 | 
28 | O=C(O)c1cc(S(=O)(=O)Nc2ccccc2)c(Cl)cc1NCc1ccco1 [SI-W080, 4-Chloro-2-((furan-2-ylmethyl)amino)-5-(N-phenylsulfamoyl) benzoic acid] | 168 ± 29 |  | inhibition at 100 µM (Aβ 1-40; [3]): 17.4%
29 | CNC(=O)c1cc(C(=O)OC)c(NCc2ccco2)cc1Cl [SIV-W155, Methyl 4-chloro-2-((furan-2-ylmethyl)amino)-5-(methylcarbamoyl)benzoate] |  | 20 | 
30 | COC(=O)c1cc(C(=O)N2CCCCC2)c(Cl)cc1NCc1ccco1 [SIV-W160, Methyl 4-chloro-2-((furan-2-ylmethyl)amino)-5-(piperidine-1-carbonyl)benzoate] |  | 25 | 
31 | NC(=O)c1cc(C(=O)O)c(NCc2ccco2)cc1Cl [SIV-W164, 5-Carbamoyl-4-chloro-2((furan-2-ylmethyl)amino) Benzoic Acid] | > 200 |  | 
32 | O=C(O)c1cc(C(=O)N2CCOCC2)c(Cl)cc1NCc1ccco1 [SIV-W166, 4-Chloro-2-((furan-2-ylmethyl)amino)-5-(morpholine-4-carbonyl)benzoic acid] | > 200 | 25 | 
33 | O=C(O)c1cc(C(=O)N2CCCCC2)c(Cl)cc1NCc1ccco1 [SIV-W167, 4-Chloro-2-((furan-2-ylmethyl)amino)-5-(piperidine-1-carbonyl)benzoic Acid] | > 200 |  | 
34 | CNC(=O)c1cc(C(=O)O)c(NCc2ccco2)cc1Cl [SIV-W168, 4-Chloro-2-((furan-2-ylmethyl)amino)-5-(methylcarbamoyl)benzoic Acid] | > 200 | 27 | 
35 | CCNC(=O)c1cc(C(=O)OC)c(NCc2ccco2)cc1Cl [SIV-W172, Methyl 4-chloro-5-(ethylcarbamoyl)-2-((furan-2-ylmethyl)amino)benzoate] |  | 18 | 
36 | CN(C)C(=O)c1cc(C(=O)O)c(NCc2ccco2)cc1Cl [SIV-W173, 4-Chloro-5-(dimethylcarbamoyl)-2((furan-2-ylmethyl)amino)benzoic Acid] | > 200 | 25 | 
37 | CCNC(=O)c1cc(C(=O)O)c(NCc2ccco2)cc1Cl [SIV-W174, 4-Chloro-5-(ethylcarbamoyl)-2((furan-2-ylmethyl)amino)benzoic Acid] | > 200 | 21 | 
38 | COC(=O)c1cc(C(=O)Nc2ccccc2)c(Cl)cc1NCc1ccco1 [SIV-W178, Methyl 4-chloro-2-((furan-2-ylmethyl)amino)-5-(phenylcarbamoyl)benzoate] |  | 12 | 
39 | O=C(Nc1ccccc1)c1cc(C(=O)O)c(NCc2ccco2)cc1Cl [SIV-W179, 4-Chloro-2((furan-2-ylmethyl)amino)-5-(phenylcarbamoyl)benzoic Acid] | > 200 | 22 | 
40 | CNS(=O)(=O)c1cc(C(=O)N(C)C)c(NCc2ccco2)cc1Cl [WW103, 4-Chloro-2-((furan-2-ylmethyl)amino)-N, N-dimethyl-5-(N-methylsulfamoyl) Benzamide] |  |  | IC50 ([1]; Example 5, ND = inhibition activity not detected over 200 μM, listed as SII-W103, read-out: Inhibition of Aβ oligomerization, μM IC50): 6.5 µM and 6.56 µM; inhibition at 100 µM (Aβ 1-40; [5]): 25.2%; inhibition at 100 µM (Aβ 1-40; [3]): 25.2%
41 | Cc1ccc(CNc2cc(F)ccc2C(O)C(F)(F)F)c(C)c1 (centres unmarked) [WW-024] |  | 11.2 | 
42 | COc1c(C)ccc(CNc2cc(F)ccc2C(O)C(F)(F)F)c1OC (centres unmarked) [WW-028] |  | 19.9 | 
43 | COC(=O)c1cc(S(N)(=O)=O)c(Cl)cc1NCc1ccco1 [WW-161] |  | 24 | 
